Reference: patent US11578055B2, “Triazacyclododecansulfonamide (“TCD”)-based protein secretion inhibitors” (KEZAR LIFE SCIENCES, priority 2018, dated 2023)
Where two headings read alike, the source gives them in different places.

Tests used:
[1] = test system: PD1 signal sequence plus 10 amino acids fused to Gaussia Luciferase (PD1-ss+10aa/Gaussia Luciferase); assay: Dox Induced PD1-ss-Gluc Assay; type: cell-based; settings: 24 hr, read-out: 24 hr Dox Inducible PD1ssGluc 293FRT/TO: Mean IC50
Summary of the method: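 Compound dilutions in DMSO/media containing doxycycline were applied to a stable, inducible 293 T-REx line carrying the luciferase fusion, then incubated at 37 °C, 5% CO2. Where stereochemistry is not drawn, values relate to isomer mixtures.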

[2] = test system: full length TNFα (amino acids 1-233) fused to Gaussia Luciferase; assay: Dox Induced TNFα-FL-Gluc Assay; type: cell-based; settings: 24 hr, read-out: 24 hr Dox Inducible TNFaFLGluc 293FRT/TO: Mean IC50
Summary of the method: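 Compounds diluted in DMSO/medium with doxycycline were incubated at 37° C, 5% CO2 with 293 T-REx cells stably carrying a Tet-regulated TNFα(1-233)-Gaussia luciferase construct. Data for structures drawn without stereochemistry refer to stereoisomer mixtures.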

[3] = test system: full length IL-2 (amino acids 1-153) fused to Gaussia Luciferase; assay: Dox Induced IL2-FL-Gluc Assay; type: cell-based; settings: 24 hr, read-out: 24 hr Dox Inducible IL2FLGluc 293FRT/TO: Mean IC50
From the text: FIp-In 293 T-REx™ cells were transfected with pcDNA™5/FRT/TO plasmid inserted with cDNA encoding Gaussia Luciferase fused to the 3′ end of cDNA encoding full length IL-2 (amino acids 1-153). Transfected cells were selected for resistance to the selectable markers Hygromycin and Blasticidin to create a stable cell line that contained the IL-2-FL/Gaussia Luciferase cDNA insert whose expression was regulated under the T-REx™ system. The day before assay, cells were trypsinized and plated in 384-well tissue culture plates. The next day, compound dilutions in DMSO/media containing doxycycline were added to the wells and incubated at 37° C., 5% CO2.
For chemical structures that include one or more stereoisomers, but are illustrated without indicating stereochemistry, the assay data refers to a mixture of stereoisomers.

[4] = test system: multiple myeloma cell line NCl-H929; assay: H929 Cell Viability Assay; type: cell-based, human
Summary of the method: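 Viability was determined by CellTiter-Glo luminescence after a 48 h, 37 °C exposure of NCI-H929 cells to serial compound dilutions in medium containing 10% FBS. Where stereochemistry is not shown, values refer to a mix of stereoisomers.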

[5] = test system: multiple myeloma cell line U266B1; assay: U266 Cell Viability Assay; type: cell-based, human; settings: 48 hr
Summary of the method: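 Viability was measured by CellTiter-Glo luminescence after 48 h compound exposure at 37° C, 5% CO2. The cells were U266B1 multiple myeloma cells grown in RPMI 1640 plus 10% FBS. Where stereochemistry is not shown, values apply to the stereoisomer mixture.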

[6] = In Vitro Microsome Stability Assay (human); type: in vitro ADME
Summary of the method: (§1)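 The value reported is the percentage of parent left after 30 min, calculated from analyte/IS peak-area ratios relative to time zero by LC-MS/MS. Incubations ran at 37° C in 0.1 M potassium phosphate with NADPH and microsomes (stock 20 mg/mL), with compound added from a 0.25 mM DMSO stock. Acetonitrile containing IS stopped the reactions.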

[7] = In Vitro Microsome Stability Assay (mouse); type: in vitro ADME
Summary of the method: as §1

[8] = In Vitro Microsome Stability Assay (rat); type: in vitro ADME
Summary of the method: as §1

[9] = In Vitro Microsome Stability Assay (monkey); type: in vitro ADME
Summary of the method: as §1

[10] = human liver microsomes, 30 min w/ NADPH
[11] = mouse liver microsomes, 30 min w/ NADPH
[12] = rat liver microsomes, 30 min w/ NADPH
[13] = monkey liver microsomes, 30 min w/ NADPH
[14] = Homo sapiens, NCI-H929, 48 h, H929, read-out: 48 hr H929 Viability Celltiter-Glo: Mean EC50
[15] = Homo sapiens, U-266, U266, read-out: 48 hr U266 Viability Celltiter-Glo: Mean EC50
[16] = Homo sapiens, NCI-H929, 48 h, H929, Celltiter-Glo
[17] = Homo sapiens, U-266, U266, Celltiter-Glo

Structure (SMILES)	IC50 ([1]; Dox inducible, 293FRT/TO cells)	IC50 ([2]; Dox inducible, 293FRT/TO cells)	IC50 ([3]; Dox inducible, 293FRT/TO cells)	EC50 ([4]; 48 hr, H929, Celltiter-Glo)	EC50 ([5]; U266, Celltiter-Glo)	Liver Microsome Stability-% Left after 30 min w/ NADPH (%) Human [6, 10]	Liver Microsome Stability-% Left after 30 min w/ NADPH (%) Mouse [7, 11]	Liver Microsome Stability-% Left after 30 min w/ NADPH (%) Rat [8, 12]	Liver Microsome Stability-% Left after 30 min w/ NADPH (%) Monkey [9, 13]	IC50 ([1]; 293FRT/TO)	IC50 ([2]; 293FRT/TO)	IC50 ([3]; 293FRT/TO)	EC50 [4, 14]	EC50 [5, 15]	Liver Microsome Stability-% Left after 30 min w/ NADPH (%) Human ([6]; human, 30 min, NADPH)	Liver Microsome Stability-% Left after 30 min w/ NADPH (%) Mouse ([7]; mouse, 30 min, NADPH)	Liver Microsome Stability-% Left after 30 min w/ NADPH (%) Rat ([8]; rat, 30 min, NADPH)	Liver Microsome Stability-% Left after 30 min w/ NADPH (%) Monkey ([9]; monkey, 30 min, NADPH)	EC50 [4, 16]	EC50 [5, 17]
Cc1cc(F)ccc1N1CCN(S(=O)(=O)N2CCCN(CC3CCCCC3)CCCN(S(=O)(=O)c3ccc(N(C)C)cc3)C[C@H](C)C2)C(C)C1 (stereo in doubt) [A163, 4-{[(3S)-9-(cyclohexylmethyl)-5-{[(2 R)-4-(4-fluoro-2-methylphenyl)-2-methylpiperazin-1-yl]sulfonyl}-3-methyl-1,5,9-triazacyclododecan-1-yl]sulfonyl}-N,N-dimethylaniline]	0.0556 µM	1.93 µM	0.0812 µM	13.6 µM	> 25 µM	64.2%	72.8%	54.9%	57.5%											
CO/N=C1/CN(S(=O)(=O)c2ccc(N(C)C)cc2)CCCN(CC2CCCCC2)CCCN(S(=O)(=O)N2CCC(c3ccccc3)CC2)C1 [A88, (3Z)-9-(cyclohexylmethyl)-1-[4-(dimethylamino)benzenesulfonyl]-N-methoxy-5-[(4-phenylpiperidin-1-yl)sulfonyl]-1,5,9-triazacyclododecan-3-imine]										4.33 µM	> 25 µM	> 25 µM	> 25 µM	> 25 µM	11.7%	15.9%	15.2%	1.33%		
C=C1CN(S(=O)(=O)c2ccc(N(C)C)cc2)CCCN(CC2CCCCC2)CCCN(S(=O)(=O)N2Cc3ccc(Cl)cc3C2)C1 [A89, 4-({5-[(5-chloro-2,3-dihydro-1H-isoindo1-2-yl)sulfonyl]-9-(cyclohexylmethyl)-3-methylidene-1,5,9-triazacyclododecan-1-yl}sulfonyl)-N,N-dimethylaniline]										0.082 µM	1.21 µM	0.187 µM	1.75 µM	> 25 µM	18.5%	17.1%	22.2%	13.5%		
C[C@H]1CN(S(=O)(=O)c2ccc(N(C)C)cc2)CCCN(CC2CCCCC2)CCCN(S(=O)(=O)N2CC[C@@H](c3ccccc3)C2)C1 [A90, 4-{[(3S)-9-(cyclohexylmethyl)-3-methyl-5-{[(3S)-3-phenylpyrrolidin-1-yl]sulfonyl}-1,5,9-triazacyclododecan-1-yl]sulfonyl}-N,N-dimethylaniline]										0.207 µM	2.41 µM	0.493 µM	3.79 µM	> 25 µM	20.1%	28.2%	20.2%	14.1%		
C[C@H]1CN(S(=O)(=O)c2ccc(N(C)C)cc2)CCCN(CC2CCCCC2)CCCN(S(=O)(=O)N2CC[C@H](c3ccccc3)C2)C1 [A91, 4-{[(3S)-9-(cyclohexylmethyl)-3-methyl-5-{[(3 R)-3-phenylpyrrolidin-1-yl]sulfonyl}-1,5,9-triazacyclododecan-1-yl]sulfonyl}-N,N-dimethylaniline]										0.193 µM	2.46 µM	0.377 µM	3.01 µM	14.7 µM	23.7%	25.4%	21.6%	21.8%		
C[C@H]1CN(S(=O)(=O)c2ccc(N(C)C)cc2)CCCN(CC2CCCCC2)CCCN(S(=O)(=O)N2CCC(Oc3ccccc3)CC2)C1 [A92, 4-{[(3S)-9-(cyclohexylmethyl)-3-methyl-5-[(4-phenoxypiperidin-1-yl)sulfonyl]-1,5,9-triazacyclododecan-1-yl]sulfonyl}-N,N-dimethylaniline]										0.304 µM	> 25 µM	0.519 µM	> 25 µM	> 25 µM	44.3%	40.8%	51.8%	40.4%		
C[C@H]1CN(S(=O)(=O)c2ccc(N(C)C)cc2)CCCN(CC2CCCCC2)CCCN(S(=O)(=O)N2CCN(c3ncccn3)CC2)C1 [A93, 4-{[(3S)-9-(cyclohexylmethyl)-3-methyl-5-{[4-(pyrimidin-2-yl)piperazin-1-yl]sulfonyl}-1,5,9-triazacyclododecan-1-yl]sulfonyl}-N,N-dimethylaniline]										0.67 µM	> 25 µM	0.911 µM	10.4 µM	> 25 µM	0.84%	0.4%	0.51%	0.18%		
C[C@H]1CN(S(=O)(=O)c2ccc(N(C)C)cc2)CCCN(CC2CCCCC2)CCCN(S(=O)(=O)N2CCNCC2)C1 [A155, 4-{[(3S)-9-(cyclohexylmethyl)-3-methyl-5-(piperazine-1-sulfonyl)-1,5,9-triazacyclododecan-1-yl]sulfonyl}-N, N-dimethylaniline]	1.35 µM		3.48 µM			17.8%	16.8%	38.8%	4.86%										7.8 µM	> 25 µM

Second part, the compound after the results:

IC50 ([1]; Dox inducible, 293FRT/TO cells)	IC50 ([2]; Dox inducible, 293FRT/TO cells)	IC50 ([3]; Dox inducible, 293FRT/TO cells)	EC50 ([4]; 48 hr, H929, Celltiter-Glo)	EC50 ([5]; U266, Celltiter-Glo)	Liver Microsome Stability-% Left after 30 min w/ NADPH (%) Human [6, 10]	Liver Microsome Stability-% Left after 30 min w/ NADPH (%) Mouse [7, 11]	Liver Microsome Stability-% Left after 30 min w/ NADPH (%) Rat [8, 12]	Liver Microsome Stability-% Left after 30 min w/ NADPH (%) Monkey [9, 13]	IC50 ([1]; 293FRT/TO)	IC50 ([2]; 293FRT/TO)	IC50 ([3]; 293FRT/TO)	EC50 [4, 14]	EC50 [5, 15]	Liver Microsome Stability-% Left after 30 min w/ NADPH (%) Human ([6]; human, 30 min, NADPH)	Liver Microsome Stability-% Left after 30 min w/ NADPH (%) Mouse ([7]; mouse, 30 min, NADPH)	Liver Microsome Stability-% Left after 30 min w/ NADPH (%) Rat ([8]; rat, 30 min, NADPH)	Liver Microsome Stability-% Left after 30 min w/ NADPH (%) Monkey ([9]; monkey, 30 min, NADPH)	EC50 [4, 16]	EC50 [5, 17]	Structure (SMILES)
16.5 µM	> 25 µM	6.92 µM																> 25 µM	> 25 µM	C[C@@H](CNS(=O)(=O)c1ccc(N(C)C)cc1)CNS(=O)(=O)N1CCc2cc(Cl)ccc2C1 [B10, (S)-6-chloro-N-(3-((4-(dimethylamino)phenyl)sulfonamido)-2-methylpropyl)-3,4-dihydroisoquinoline-2(1H)-sulfonamide]
> 25 µM	> 25 µM	> 25 µM																> 25 µM	> 25 µM	C[C@H](CNS(=O)(=O)c1ccc(N(C)C)cc1)CNS(=O)(=O)N1CCc2cc(Cl)ccc2C1 [B11, N-[(2 R)-3-{[(6-chloro-1,2,3,4-tetrahydroisoquinolin-2-yl)sulfonyl]amino}-2-methylpropyl]-4-(dimethylamino)benzene-1-sulfonamide]
5.66 µM	> 25 µM	> 25 µM																> 25 µM	> 25 µM	C[C@@H](CN(C)S(=O)(=O)c1ccc(N(C)C)cc1)CN(C)S(=O)(=O)N1CCc2cc(Cl)ccc2C1 [B12]
